Measurements: patent publication US20250160327A1, “USE OF CHROMENE OR CHROMANE DERIVATIVES AS HERBICIDAL AGENTS” (ECOLE POLYTECHNIQUE, priority 2022, published 2025)

Test system: Arabidopsis thaliana ecotype Col-0 seedlings
Experiment: Phytotoxicity test on Arabidopsis thaliana seedlings in hydroponics, visual analysis of chlorosis
Format: in vivo
Conditions: for herbicidal activity: at the concentration tested (125 pM), 48 h; for Activity after 48h: herbicidal activity, concentration of 125 pM, 48 h after application, seedlings at the cotyledon stage, max 1% DMSO
Description: Biological tests have been carried out under axenic conditions on Arabidopsis thaliana ecotype Col-0 seedlings cultured in hydroponics at the cotyledon stage. Sterilised seeds have been sown in microplates (10 seeds per well containing 200 μL of distilled water) and cultured for 10-13 days at 22° C. under a 16 h/8 h (day/night) photoperiod lighting. The treatment has been carried out by replacing the culture medium with an equivalent volume of water containing the molecule to be tested dissolved in DMSO. The maximum DMSO concentration in the treated wells was 1% by volume. A control has therefore been set up with the presence of DMSO at this concentration. The phytotoxicity of the treatment has been evaluated after 48 h of culture, by visual analysis of the chlorosis induced.
By way of comparison, tests have also been carried out under the same conditions as for compounds (Ia1), (Ia2), (Ia3) and (IC1), but with two comparative compounds not forming part of the invention: • a compound (2) including a diphenol ring in place of the chromene ring, and • a compound (3) including a chromene ring but not including an -L-Ar group. All compounds have been tested at a concentration of 125 pM.
Herbicidal activity is indicated by A for Active in the event that the plant is killed, i.e. when both cotyledons have lost all their green coloration, 48 h after application of the product.
The absence of herbicidal activity is indicated by “N” for Not active, in the case where no biological activity is observed

Compound	herbicidal activity	Activity after 48h
Oc1cc(O)cc(CCc2ccccc2)c1 [Compound 2]	no herbicidal activity	N
Cc1cc(O)c2c(c1)OC(C)(C)C=C2 [Compound 3]	no herbicidal activity	N
